Measurements reported in paper PMC5218480 (PLoS ONE, 2017).

Test system: MV-4-11 cells
Assay: Gene expression microarray analysis (Affymetrix PrimeView) and GSEA
Format: cell-based, human
Design: RFU PODN (11730768_x_at) / Fold change /veh PODN (11730768_x_at) / RFU LINC00158 (11744669_a_at) / Fold change /veh LINC00158 (11744669_a_at) / RFU DUSP10 (11751237_a_at) / Fold change /veh DUSP10 (11751237_a_at) / RFU ID3 (11757404_x_at) / Fold change /veh ID3 (11757404_x_at) / RFU PLEKHG5 (11737974_s_at) / Fold change /veh PLEKHG5 (11737974_s_at) / RFU LRRC4B (11730491_at) / Fold change /veh LRRC4B (11730491_at) / RFU GIMAP4 (11747438_a_at) / Fold change /veh GIMAP4 (11747438_a_at) / RFU KRT8 (11758183_x_at) / Fold change /veh KRT8 (11758183_x_at) / RFU CNN1 (11734310_a_at) / Fold change /veh CNN1 (11734310_a_at) / RFU VPS37D (11726825_at) / Fold change /veh VPS37D (11726825_at) / RFU C10orf10 (11716522_x_at) / Fold change /veh C10orf10 (11716522_x_at) / RFU KIR2DL2 /// KIR2DL4 /// KIR2DL5A /// KIR2DL5B /// KIR2DS1 /// KIR2DS2 /// KIR2DS3 /// KIR2DS4 /// KIR3DL3 /// KIR3DL3 /// KIR3DS1 (11738374_at) / Fold change /veh KIR2DL2 /// KIR2DL4 /// KIR2DL5A /// KIR2DL5B /// KIR2DS1 /// KIR2DS2 /// KIR2DS3 /// KIR2DS4 /// KIR3DL3 /// KIR3DL3 /// KIR3DS1 (11738374_at) / RFU C1QL1 (11718748_at) / Fold change /veh C1QL1 (11718748_at) / RFU TMPRSS4 (11747572_a_at) / Fold change /veh TMPRSS4 (11747572_a_at) / RFU HAMP (11756126_x_at) / Fold change /veh HAMP (11756126_x_at) / RFU RNFT2 (11725882_a_at) / Fold change /veh RNFT2 (11725882_a_at) / RFU NR4A2 (11747474_a_at) / Fold change /veh NR4A2 (11747474_a_at) / RFU ABCC12 (11746883_a_at) / Fold change /veh ABCC12 (11746883_a_at) / RFU TMEM136 (11760407_x_at) / Fold change /veh TMEM136 (11760407_x_at) / RFU CLDN22 /// WWC2 (11732394_at) / Fold change /veh CLDN22 /// WWC2 (11732394_at) / RFU HLA-DPB1 (11760878_x_at) / Fold change /veh HLA-DPB1 (11760878_x_at) / RFU SPINT1 (11716480_a_at) / Fold change /veh SPINT1 (11716480_a_at) / RFU GAP43 (11754022_s_at) / Fold change /veh GAP43 (11754022_s_at) / RFU A4GNT (11735810_at) / Fold change /veh A4GNT (11735810_at) / RFU PRB3 (11715151_x_at) / Fold change /veh PRB3 (11715151_x_at) / RFU TUBB4B (11761932_at) / Fold change /veh TUBB4B (11761932_at) / RFU CAPN14 (11732068_a_at) / Fold change /veh CAPN14 (11732068_a_at) / RFU TMCC2 (11721928_a_at) / Fold change /veh TMCC2 (11721928_a_at) / RFU IRGQ (11745062_a_at) / Fold change /veh IRGQ (11745062_a_at) / RFU FAM174B (11720279_a_at) / Fold change /veh FAM174B (11720279_a_at) / RFU TMPRSS4 (11748680_a_at) / Fold change /veh TMPRSS4 (11748680_a_at) / RFU FAM212B (11763350_a_at) / Fold change /veh FAM212B (11763350_a_at) / RFU PLEKHG5 (11743358_a_at) / Fold change /veh PLEKHG5 (11743358_a_at) / RFU ZSCAN30 (11745921_a_at) / Fold change /veh ZSCAN30 (11745921_a_at) / RFU CMKLR1 (11741424_a_at) / Fold change /veh CMKLR1 (11741424_a_at) / RFU LOC101060620 /// MAPK8IP1 (11723275_at) / Fold change /veh LOC101060620 /// MAPK8IP1 (11723275_at) / RFU SPTSSB (11747773_x_at) / Fold change /veh SPTSSB (11747773_x_at) / RFU PRSS12 (11739890_at) / Fold change /veh PRSS12 (11739890_at) / RFU BIN1 (11741810_x_at) / Fold change /veh BIN1 (11741810_x_at) / RFU WNT11 (11732464_a_at) / Fold change /veh WNT11 (11732464_a_at) / RFU C10orf10 (11716521_a_at) / Fold change /veh C10orf10 (11716521_a_at) / RFU C5orf56 (11738089_at) / Fold change /veh C5orf56 (11738089_at) / RFU CYB561 (11721691_x_at) / Fold change /veh CYB561 (11721691_x_at) / RFU ANKRD19P (11752326_a_at) / Fold change /veh ANKRD19P (11752326_a_at) / RFU OR2T12 /// OR2T33 /// OR2T8 (11738714_s_at) / Fold change /veh OR2T12 /// OR2T33 /// OR2T8 (11738714_s_at) / RFU VCAN (11748164_a_at) / Fold change /veh VCAN (11748164_a_at) / RFU JSRP1 (11732532_at) / Fold change /veh JSRP1 (11732532_at) / RFU KRTAP10-11 (11738290_x_at) / Fold change /veh KRTAP10-11 (11738290_x_at) / RFU MYO3A (11730013_a_at) / Fold change /veh MYO3A (11730013_a_at) / RFU EBF3 (11725865_a_at) / Fold change /veh EBF3 (11725865_a_at) / RFU CAMK2N1 (11719241_x_at) / Fold change /veh CAMK2N1 (11719241_x_at) / RFU C5orf56 (11738088_a_at) / Fold change /veh C5orf56 (11738088_a_at) / RFU OLFML3 (11715873_a_at) / Fold change /veh OLFML3 (11715873_a_at) / RFU LOC100653217 /// NTM (11731650_a_at) / Fold change /veh LOC100653217 /// NTM (11731650_a_at) / RFU MAPK11 (11762145_a_at) / Fold change /veh MAPK11 (11762145_a_at) / RFU FIZ1 (11724087_x_at) / Fold change /veh FIZ1 (11724087_x_at) / RFU OASL (11726364_x_at) / Fold change /veh OASL (11726364_x_at) / RFU SOX15 (11748057_x_at) / Fold change /veh SOX15 (11748057_x_at) / RFU CD79A (11719716_a_at) / Fold change /veh CD79A (11719716_a_at) / RFU HIST1H1D (11736915_at) / Fold change /veh HIST1H1D (11736915_at) / RFU CASKIN2 (11723855_a_at) / Fold change /veh CASKIN2 (11723855_a_at) / RFU LOC730098 (11760151_x_at) / Fold change /veh LOC730098 (11760151_x_at) / RFU OR4N2 (11742367_at) / Fold change /veh OR4N2 (11742367_at) / RFU PRRT2 (11749266_a_at) / Fold change /veh PRRT2 (11749266_a_at) / RFU SNX32 (11753110_a_at) / Fold change /veh SNX32 (11753110_a_at) / RFU CDHR5 (11726645_a_at) / Fold change /veh CDHR5 (11726645_a_at) / RFU RCAN1 (11760418_a_at) / Fold change /veh RCAN1 (11760418_a_at) / RFU FAM167A (11723789_a_at) / Fold change /veh FAM167A (11723789_a_at) / RFU FAM26E (11764081_at) / Fold change /veh FAM26E (11764081_at) / RFU ISYNA1 (11749810_s_at) / Fold change /veh ISYNA1 (11749810_s_at) / RFU ACY1 (11761880_at) / Fold change /veh ACY1 (11761880_at) / RFU 11764098_at / Fold change /veh 11764098_at / RFU SAMD14 (11745864_x_at) / Fold change /veh SAMD14 (11745864_x_at) / RFU NPB (11741838_a_at) / Fold change /veh NPB (11741838_a_at) / RFU TMPRSS6 (11731388_a_at) / Fold change /veh TMPRSS6 (11731388_a_at) / RFU KRTAP10-2 (11738614_at) / Fold change /veh KRTAP10-2 (11738614_at) / RFU ARHGAP8 /// PRR5-ARHGAP8 (11727945_x_at) / Fold change /veh ARHGAP8 /// PRR5-ARHGAP8 (11727945_x_at) / RFU KRTAP5-7 /// NADSYN1 (11734609_at) / Fold change /veh KRTAP5-7 /// NADSYN1 (11734609_at) / RFU RASL12 (11751679_a_at) / Fold change /veh RASL12 (11751679_a_at) / RFU CDKN2B (11736163_a_at) / Fold change /veh CDKN2B (11736163_a_at) / RFU PRF1 (11729649_at) / Fold change /veh PRF1 (11729649_at) / RFU, ZNF638 /// ZNF638-IT1 / Fold change vs veh, ZNF638 /// ZNF638-IT1 / RFU, PANK3 / Fold change vs veh, PANK3 / RFU, SH3YL1 / Fold change vs veh, SH3YL1 / RFU, ZEB2 / Fold change vs veh, ZEB2 / RFU, NRIP1 / Fold change vs veh, NRIP1 / RFU, PTTG1IP / Fold change vs veh, PTTG1IP / RFU, CAPN2 / Fold change vs veh, CAPN2 / RFU, MED14 / Fold change vs veh, MED14 / RFU, SNORA58 / Fold change vs veh, SNORA58 / RFU, C1orf63 / Fold change vs veh, C1orf63 / RFU, LRRFIP1 / Fold change vs veh, LRRFIP1 / RFU, NDUFAF7 / Fold change vs veh, NDUFAF7 / RFU, SLC12A2 / Fold change vs veh, SLC12A2 / RFU, IBTK / Fold change vs veh, IBTK / RFU, ESF1 / Fold change vs veh, ESF1 / Fold change vs veh, TMEM50B / RFU, TAOK1 / Fold change vs veh, TAOK1 / RFU, ACBD3 / Fold change vs veh, ACBD3 / RFU, TMA16 / Fold change vs veh, TMA16 / RFU, RWDD3 / Fold change vs veh, RWDD3 / RFU, BCAT1 / Fold change vs veh, BCAT1 / RFU, EDEM3 / Fold change vs veh, EDEM3 / RFU, TMEM33 / Fold change vs veh, TMEM33 / RFU, WDR75 / Fold change vs veh, WDR75 / RFU, AHCTF1 / Fold change vs veh, AHCTF1 / RFU, TFRC / Fold change vs veh, TFRC / RFU, ZDHHC17 / Fold change vs veh, ZDHHC17 / RFU, NOM1 / Fold change vs veh, NOM1 / RFU, ARL8B / Fold change vs veh, ARL8B / RFU, ZBTB11 / Fold change vs veh, ZBTB11 / RFU, TAMM41 / Fold change vs veh, TAMM41 / RFU, KIAA1704 /// LOC100996395 / Fold change vs veh, KIAA1704 /// LOC100996395 / RFU, ING1 / Fold change vs veh, ING1 / RFU, TRMT61B / Fold change vs veh, TRMT61B / RFU, FUBP3 / Fold change vs veh, FUBP3 / RFU, TP53 / Fold change vs veh, TP53 / RFU, TNKS2 / Fold change vs veh, TNKS2 / RFU, ZFP14 / Fold change vs veh, ZFP14 / RFU, ACTR2 / Fold change vs veh, ACTR2 / RFU, PPP3R1 / Fold change vs veh, PPP3R1 / RFU, PIK3R1 / Fold change vs veh, PIK3R1 / RFU, HNRNPA1 / Fold change vs veh, HNRNPA1 / RFU, RNF170 / Fold change vs veh, RNF170 / RFU, ZNF28 / Fold change vs veh, ZNF28 / RFU, RNGTT / Fold change vs veh, RNGTT / RFU, OGT / Fold change vs veh, OGT / RFU, BRD1 / Fold change vs veh, BRD1 / RFU, MARS / Fold change vs veh, MARS / RFU, ZNF655 / Fold change vs veh, ZNF655 / RFU, FAHD1 / Fold change vs veh, FAHD1 / RFU, BDP1 / Fold change vs veh, BDP1 / RFU, LRRCC1 / Fold change vs veh, LRRCC1 / RFU, ARID1A / Fold change vs veh, ARID1A / RFU, ZNF146 / Fold change vs veh, ZNF146 / RFU, ZNF330 / Fold change vs veh, ZNF330 / RFU, GPN3 / Fold change vs veh, GPN3 / RFU, C9orf123 / Fold change vs veh, C9orf123 / RFU, N4BP2L2 / Fold change vs veh, N4BP2L2 / RFU, ARFIP1 / Fold change vs veh, ARFIP1 / RFU, FAM179B / Fold change vs veh, FAM179B / RFU, BCL10 / Fold change vs veh, BCL10 / RFU, UHRF1BP1L / Fold change vs veh, UHRF1BP1L / RFU, BET1 / Fold change vs veh, BET1 / RFU, CNOT2 / Fold change vs veh, CNOT2 / RFU, ZNF268 / Fold change vs veh, ZNF268 / Fold change vs veh, ZNF507 / RFU, DGCR2 / Fold change vs veh, DGCR2 / RFU, WDSUB1 / Fold change vs veh, WDSUB1 / Fold change vs veh, HSP90B1 /// MIR3652 / RFU, ADSS / Fold change vs veh, ADSS / RFU, GK / Fold change vs veh, GK / RFU, ZNF148 / Fold change vs veh, ZNF148 / RFU, TAF9 / Fold change vs veh, TAF9 / RFU, SLC1A5 / Fold change vs veh, SLC1A5 / RFU, SLMO2 / Fold change vs veh, SLMO2 / RFU, ABCC4 / Fold change vs veh, ABCC4 / RFU, LOC101060439 /// RAP1B / Fold change vs veh, LOC101060439 /// RAP1B / RFU, RFX7 / Fold change vs veh, RFX7 / RFU, GTPBP10 / Fold change vs veh, GTPBP10 / RFU, CNEP1R1 / Fold change vs veh, CNEP1R1 / RFU, BIVM-ERCC5 /// ERCC5 / Fold change vs veh, BIVM-ERCC5 /// ERCC5 / RFU, ILF3 / Fold change vs veh, ILF3 / RFU 11762660_at / Fold change /veh 11762660_at / RFU VCAN (11757783_s_at) / Fold change /veh VCAN (11757783_s_at) / RFU DDX43 (11728927_at) / Fold change /veh DDX43 (11728927_at) / RFU KRT8 (11758188_x_at) / Fold change /veh KRT8 (11758188_x_at) / RFU NKD1 (11759106_at) / Fold change /veh NKD1 (11759106_at) / RFU SRD5A1 (11742802_a_at) / Fold change /veh SRD5A1 (11742802_a_at) / RFU TPSAB1 /// TPSB2 (11721975_s_at) / Fold change /veh TPSAB1 /// TPSB2 (11721975_s_at) / RFU GSTM3 (11746129_a_at) / Fold change /veh GSTM3 (11746129_a_at) / RFU IL23R (11737362_x_at) / Fold change /veh IL23R (11737362_x_at) / RFU TMEM51 (11727254_a_at) / Fold change /veh TMEM51 (11727254_a_at) / RFU PIWIL2 (11732686_x_at) / Fold change /veh PIWIL2 (11732686_x_at) / RFU ORM1 (11744905_x_at) / Fold change /veh ORM1 (11744905_x_at) / RFU CCDC152 (11743942_at) / Fold change /veh CCDC152 (11743942_at) / RFU ECM1 (11717891_a_at) / Fold change /veh ECM1 (11717891_a_at) / RFU IL23R (11748794_a_at) / Fold change /veh IL23R (11748794_a_at) / RFU TNFAIP8L3 (11732012_x_at) / Fold change /veh TNFAIP8L3 (11732012_x_at) / RFU MBOAT4 (11741988_at) / Fold change /veh MBOAT4 (11741988_at) / RFU 11764193_at / Fold change /veh 11764193_at / RFU TMEM53 (11763286_at) / Fold change /veh TMEM53 (11763286_at) / RFU MAGEB2 (11727129_at) / Fold change /veh MAGEB2 (11727129_at) / RFU TMEM200A (11744735_a_at) / Fold change /veh TMEM200A (11744735_a_at) / RFU CCDC152 (11751479_a_at) / Fold change /veh CCDC152 (11751479_a_at) / RFU FAM211A (11726209_a_at) / Fold change /veh FAM211A (11726209_a_at) / RFU RGS16 (11746705_a_at) / Fold change /veh RGS16 (11746705_a_at) / RFU VCAN (11755009_s_at) / Fold change /veh VCAN (11755009_s_at) / RFU RHOB (11743442_s_at) / Fold change /veh RHOB (11743442_s_at) / RFU RGS16 (11720943_a_at) / Fold change /veh RGS16 (11720943_a_at) / RFU RGS16 (11720944_at) / Fold change /veh RGS16 (11720944_at) / RFU, VPS4B / Fold change vs veh, VPS4B / RFU, CREB1 / Fold change vs veh, CREB1 / RFU, DNAJC13 / Fold change vs veh, DNAJC13 / RFU, GNAQ / Fold change vs veh, GNAQ / RFU, CDK5R1 / Fold change vs veh, CDK5R1 / RFU, ZRANB3 / Fold change vs veh, ZRANB3 / RFU, CUL4A / Fold change vs veh, CUL4A / RFU, CCNY / Fold change vs veh, CCNY / RFU, UFL1 / Fold change vs veh, UFL1 / RFU, COG3 / Fold change vs veh, COG3 / RFU, DIAPH2 / Fold change vs veh, DIAPH2 / RFU, SKA2 / Fold change vs veh, SKA2 / RFU, AFF3 / Fold change vs veh, AFF3 / RFU, LMF1 / Fold change vs veh, LMF1 / RFU, IPO11 / Fold change vs veh, IPO11 / RFU, DFFB / Fold change vs veh, DFFB / RFU, FOXP1 / Fold change vs veh, FOXP1 / RFU, CARD8 / Fold change vs veh, CARD8 / RFU, STRN3 / Fold change vs veh, STRN3 / RFU, ADK / Fold change vs veh, ADK / RFU, RASSF2 / Fold change vs veh, RASSF2 / RFU, WIPF1 / Fold change vs veh, WIPF1 / RFU, LARP1B / Fold change vs veh, LARP1B / RFU, RASA1 / Fold change vs veh, RASA1 / RFU, RB1 / Fold change vs veh, RB1 / RFU, PPFIA1 / Fold change vs veh, PPFIA1 / RFU, MAT2A / Fold change vs veh, MAT2A / RFU, CCT5 / Fold change vs veh, CCT5 / RFU, WDR92 / Fold change vs veh, WDR92 / RFU, CUX1 / Fold change vs veh, CUX1 / RFU, TTC7A / Fold change vs veh, TTC7A / RFU, TMEM135 / Fold change vs veh, TMEM135 / RFU, DEPTOR / Fold change vs veh, DEPTOR / RFU, CPM / Fold change vs veh, CPM / RFU, DNAJB6 / Fold change vs veh, DNAJB6 / RFU, CACNA2D3 / Fold change vs veh, CACNA2D3 / RFU, DTX4 / Fold change vs veh, DTX4 / RFU, TFCP2 / Fold change vs veh, TFCP2 / RFU, GMCL1 /// GMCL1P1 / Fold change vs veh, GMCL1 /// GMCL1P1 / RFU, AEBP2 / Fold change vs veh, AEBP2 / RFU, SNHG1 /// SNORD22 /// SNORD25 /// SNORD26 /// SNORD27 /// SNORD28 /// SNORD29 /// SNORD31 / Fold change vs veh, SNHG1 /// SNORD22 /// SNORD25 /// SNORD26 /// SNORD27 /// SNORD28 /// SNORD29 /// SNORD31 / Fold change (Aza/veh), C12orf56 (ProbeSet 11735607_a_at) / Fold change (ACY-1035/veh), C12orf56 (ProbeSet 11735607_a_at) / Fold change (Aza/veh), FGFR1OP (ProbeSet 11751329_s_at) / Fold change (ACY-1035/veh), FGFR1OP (ProbeSet 11751329_s_at) / Fold change (Aza/veh), VPS36 (ProbeSet 11739960_a_at) / Fold change (ACY-1035/veh), VPS36 (ProbeSet 11739960_a_at) / RFU SYPL1 (11715823_x_at) / Fold change /veh SYPL1 (11715823_x_at) / RFU IGFBP7 (11715501_s_at) / Fold change /veh IGFBP7 (11715501_s_at) / RFU REEP3 (11722064_at) / Fold change /veh REEP3 (11722064_at) / RFU IGLL1 (11728026_x_at) / Fold change /veh IGLL1 (11728026_x_at): dose or concentration left out as unconfirmed
Conditions: ProbeSet 11717702_a_at; LIST D

Structure (SMILES): Nc1ccc(-c2cccs2)cc1NC(=O)c1ccc2c(c1)cc(C1CC1)n2CCN1CCOCC1 [ACY-1035]
- Fold change vs veh, RB1: 0.96
